The test deals with T1, recombinant human 5-HT5A receptor (Homo sapiens, UniProt P47898).
T1 construct: expressed in transfected cells; host or cells: HEK-EBNA (Human Embryonic Kidney-EBNA) cells, transient cDNA expression, membranes
T1 sequence (P47898 whole entry): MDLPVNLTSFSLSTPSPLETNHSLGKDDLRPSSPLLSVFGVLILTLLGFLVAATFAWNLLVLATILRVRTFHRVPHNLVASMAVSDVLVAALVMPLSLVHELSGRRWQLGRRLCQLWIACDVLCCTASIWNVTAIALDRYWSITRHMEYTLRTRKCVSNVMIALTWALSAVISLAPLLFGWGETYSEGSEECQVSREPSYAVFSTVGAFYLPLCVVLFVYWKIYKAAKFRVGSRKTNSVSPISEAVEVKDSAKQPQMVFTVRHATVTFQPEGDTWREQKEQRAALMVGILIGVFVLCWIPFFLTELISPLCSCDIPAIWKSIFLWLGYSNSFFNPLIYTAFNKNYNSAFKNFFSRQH
Nature of the test: [3H]LSD radioligand binding assay, recombinant human 5-HT5A receptor in HEK-EBNA cell membranes. The conditions noted are these: [3H]LSD approximately 1 nM; membranes from HEK-EBNA cells; Ki from IC50 by the Cheng-Prussoff equation. The method, then: A [^3H] LSD radioligand binding assay was used to determine the affinity of the compounds for the recombinant human 5-HT5A receptor in membranes from transiently (cDNA) expressed 5-HT5A receptors in Human Embryonic Kidney-EBNA (HEK-EBNA) cells. Assay buffer consisted of Tris (50 mM) buffer containing 1 mM EGTA, 10 mM MgCl2 (pH 7.4) and 10 μM pargyline. The binding assay was carried out in 96-well-plates in the presence of [^3H]LSD (approximately 1 nM), approximately 2 μg/well of membrane protein, and 0.5 mg of Ysi-poly-1-lysine SPA beads in a final volume of 200 μl of buffer. Non-specific binding was defined using methiothepin 2 μM. Compounds were tested at 10 concentrations. All assays were conducted in duplicate and repeated at least two times. Assay plates were incubated for 120 min at room temperature before centrifugation. Bound ligand was determined using a Packard Topcount scintillation counter. IC50 values were calculated using a non-linear curve fitting program, and Ki values were calculated using the Cheng-Prussoff equation.
For the compound `CC1NC(N)=Nc2ccc(Cl)c(Cl)c21` (stereo not shown) [Example 8, 5,6-Dichloro-4-methyl-3,4-dihydro-quinazolin-2-ylamine], the Ki (as a rule, the dissociation constant of the complex between target and ligand, obtained from inhibition or displacement) stood at 2 nM. `CNC1=Nc2cccc(Cl)c2C(C)N1` (stereo not shown) [Example 2, (5-Chloro-4-methyl-3,4-dihydro-quinazolin-2-yl)-methyl-amine]: the Ki was 10.8 nM. Take `CC1NC(NC2CCC2)=Nc2cccc(Cl)c21` (stereo not shown) [Example 3, (5-Chloro-4-methyl-3,4-dihydro-quinazolin-2-yl)-cyclobutyl-amine]: the Ki came to 15.5 nM. With `CC1NC(NC2CCC2)=Nc2ccc(Cl)c(Cl)c21` (stereo not shown) [Example 15, Cyclobutyl-(5,6-dichloro-4-methyl-3,4-dihydro-quinazolin-2-yl)-amine], the Ki worked out at 6.9 nM. For the compound `CC1NC(NCC(F)F)=Nc2cccc(Cl)c21` (stereo not shown) [Example 5, (5-Chloro-4-methyl-3,4-dihydro-quinazolin-2-yl)-(2,2-difluoro-ethyl)-amine], the Ki was 10.1 nM. In the case of `CC1NC(NCC(F)F)=Nc2ccc(Cl)c(Cl)c21` (stereo not shown) [Example 10, (5,6-Dichloro-4-methyl-3,4-dihydro-quinazolin-2-yl)-(2,2-difluoro-ethyl)-amine] it was 5.67 nM; in that of `CCCCCNC1=Nc2ccc(Cl)c(Cl)c2C(C)N1` (stereo not shown) [Example 18, (5,6-Dichloro-4-methyl-3,4-dihydro-quinazolin-2-yl)-pentyl-amine], 13.9 nM; in that of `CNC1=Nc2ccc(Cl)c(Cl)c2C(C)N1` (stereo not shown) [Example 9, (5,6-Dichloro-4-methyl-3,4-dihydro-quinazolin-2-yl)-methyl-amine], 6.34 nM.

Turning to `CC(=O)NCCNC1=Nc2ccc(Cl)c(Cl)c2C(C)N1` (stereo not shown) [Example 16, N-[2-(5,6-Dichloro-4-methyl-3,4-dihydro-quinazolin-2-ylamino)-ethyl]-acetamide], the Ki stood at 8.87 nM. In the case of `CC1NC(N)=Nc2c(Cl)ccc(Cl)c21` (stereo not shown) [Example 23, 5,8-Dichloro-4-methyl-3,4-dihydro-quinazolin-2-ylamine], the Ki was 5.85 nM. For the compound `CC1NC(N)=Nc2cccc(Cl)c21` (stereo not shown) [Example 1, 5-Chloro-4-methyl-3,4-dihydro-quinazolin-2-ylamine], the Ki turned out to be 5.13 nM. Turning to `CC1NC(NCC2COCCO2)=Nc2ccc(Cl)c(Cl)c21` (stereo not shown) [Example 21, (5,6-Dichloro-4-methyl-3,4-dihydro-quinazolin-2-yl)-[1,4]dioxan-2-ylmethyl-amine], the Ki is 17.8 nM. Turning to `COCCCNC1=Nc2ccc(Cl)c(Cl)c2C(C)N1` (stereo not shown) [Example 19, (5,6-Dichloro-4-methyl-3,4-dihydro-quinazolin-2-yl)-(3-methoxy-propyl)-amine], the Ki was 6.9 nM.

For the origin of these results see patent publication US7790732B2, “5-Chloro-4-alkyl-3,4-dihydro-quinazolin-2-ylamine derivatives” (Hoffman-La Roche Inc., priority 2005, dated 2010).
